Assay results reported in PubChem BioAssay (NCI).
Where “and” joins values, the source holds several entries; their conditions need not be identical. Identical values can stand only once.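 Results reflect a 48-hour exposure of cells in 96-well plates to compound at five concentrations. At the GI50, growth is halved. TGI is the concentration that stops growth completely.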

Key:
Test in all cases: NCI-60 cell line screen, 48 h
ACHN renal = system: ACHN renal
CAKI-1 renal = system: CAKI-1 renal
COLO 205 colon = system: COLO 205 colon
HCC-2998 colon = system: HCC-2998 colon
M14 melanoma = system: M14 melanoma
MCF7 breast = system: MCF7 breast
MDA-MB-435 = system: MDA-MB-435
MOLT-4 leukemia = system: MOLT-4 leukemia
SK-MEL-28 melanoma = system: SK-MEL-28 melanoma
U251 CNS = system: U251 CNS

Row | SMILES | GI50 (ACHN renal) | TGI (ACHN renal) | GI50 (CAKI-1 renal) | TGI (CAKI-1 renal) | GI50 (COLO 205 colon) | TGI (COLO 205 colon) | GI50 (HCC-2998 colon) | TGI (HCC-2998 colon) | GI50 (M14 melanoma) | TGI (M14 melanoma) | GI50 (MCF7 breast) | TGI (MCF7 breast) | GI50 (MDA-MB-435) | TGI (MDA-MB-435) | GI50 (MOLT-4 leukemia) | TGI (MOLT-4 leukemia) | GI50 (SK-MEL-28 melanoma) | TGI (SK-MEL-28 melanoma) | GI50 (U251 CNS) | TGI (U251 CNS)
1 | O=S(=O)(Nc1ccc(-c2nc(-c3cccc(OCCN4CCOCC4)c3)c(-c3ccnc(Br)c3)[nH]2)cc1)c1ccccc1 | 2.99 µM | > 100 µM | 2.56 µM | 14.5 µM | 3.54 µM | > 100 µM | 1.85 µM | 3.71 µM | 2.09 µM | 5.55 µM | 2.16 µM | 8.51 µM | 2.93 µM | > 100 µM | 2.59 µM | > 100 µM | 2.77 µM | 9.79 µM | 2.92 µM | 46 µM
2 | O=C(Cn1ccnc1[N+](=O)[O-])N(CCO)CCO | – | > 250 µM | > 1250 µM | > 1250 µM | > 250 µM | > 1250 µM | – | > 250 µM | – | > 250 µM | > 250 µM | > 1250 µM | – | > 250 µM | > 1250 µM | > 1250 µM | > 1250 µM | > 1250 µM | > 1250 µM | > 1250 µM
3 | Cn1ncc2c(Nc3ccc(Br)cc3)nc(Nc3ccc(Br)cc3)nc21 | 3.74 µM | 13 µM | 1.87 µM | 4.49 µM | 1.65 µM | 3.2 µM | 1.94 µM | 3.98 µM | 2.09 µM | 4.63 µM | 2.61 µM | 10.9 µM | 2.86 µM | 10.7 µM | 0.346 µM | 5.23 µM | 5.09 µM | 17 µM | 2.89 µM | 10 µM
4 | Nc1ccccc1C#C/C=C\C#Cc1ccc(F)cc1F | 16.6 µM | 32.2 µM | 3.13 µM | 14.7 µM | 29.5 µM | 82 µM | 2.57 µM | 12.6 µM | 16.5 µM | 32 µM | 6.28 µM | 38.5 µM | 2.38 µM | 6.19 µM | 3.05 µM | > 100 µM | 27 µM | 90.1 µM | 13.7 µM | 26.5 µM
5 | COc1ccc(OC)c(/C=C/[N+](=O)[O-])c1 | – | 4.49 µM and 3.28 µM | – | 7.74 µM and 7.64 µM | – | 4.06 µM and 6.76 µM | 4.24 µM and 4.38 µM | 10.4 µM and 7.54 µM | – | 4.44 µM and 6.86 µM | – | 8.64 µM | – | 7.68 µM | 1.1 µM and 2.52 µM | 5.31 µM and 9.59 µM | – | 4.96 µM and 9.45 µM | 2.27 µM | 8.86 µM and 7.37 µM
6 | Cc1cc(N(CCCl)CCCl)ccc1C=Nc1cccnc1 | 5.38 µM | > 100 µM | 2.46 µM | > 43.1 µM | 15.1 µM | > 70.8 µM | 16.8 µM | 32 µM | 22.5 µM | > 100 µM | 1.8 µM | > 100 µM | 37.8 µM | > 100 µM | 2.05 µM | > 80.9 µM | > 77.8 µM | > 100 µM | 18.5 µM | > 100 µM
7 | CCOc1ccc(NC(=O)Nc2cc(C(C)C)ccc2C)cc1 | 4.37 µM | 14.7 µM | 6.35 µM | 28.2 µM | 15.3 µM | > 100 µM | 11 µM | > 92.2 µM | 21.9 µM | > 100 µM | 11.8 µM | > 57.8 µM | 17.6 µM | > 100 µM | 9.57 µM | > 100 µM | 8.32 µM | 41.8 µM | 5.89 µM | 17.8 µM
